Data from patent US4572895A, “Process for preparing an antibiotic complex by culturing actinomyces strain ATCC 39417” (priority 1985, dated 1986).
Values after ≈ are worked out from the molar mass of the structure shown.

Columns and labels:
[1] = tested on: Staphylococcus aureus 209P; assay: MIC, serial two-fold agar dilution; format: cell-based; details: nutrient agar
[2] = tested on: Staphylococcus aureus Smith; assay: MIC, serial two-fold agar dilution; format: cell-based; details: nutrient agar
[3] = tested on: Bacillus subtilis PCI 219; assay: MIC, serial two-fold agar dilution; format: cell-based; details: PCI219, nutrient agar
[4] = tested on: Micrococcus luteus PCI 1001; assay: MIC, serial two-fold agar dilution; format: cell-based; details: PCI1001, nutrient agar
Micrococcus flavus D12 = assay: MIC, serial two-fold agar dilution; format: cell-based; details: nutrient agar
Escherichia coli NIHJ = assay: MIC, serial two-fold agar dilution; format: cell-based; details: nutrient agar
[5] = tested on: Klebsiella pneumoniae D11; assay: MIC, serial two-fold agar dilution; format: cell-based; details: nutrient agar
[6] = tested on: Pseudomonas aeruginosa D15; assay: MIC, serial two-fold agar dilution; format: cell-based; details: nutrient agar
[7] = tested on: Candida albicans IAM 4888; assay: MIC, serial two-fold agar dilution; format: cell-based; details: IAM4888, Sabouraud agar
[8] = tested on: Cryptococcus neoformans D49; assay: MIC, serial two-fold agar dilution; format: cell-based; details: Sabouraud agar
[9] = tested on: Aspergillus fumigatus IAM 2530; assay: MIC, serial two-fold agar dilution; format: cell-based; details: IAM2530, Sabouraud agar
[10] = tested on: Trichophyton mentagrophytes D155; assay: MIC, serial two-fold agar dilution; format: cell-based; details: Sabouraud agar
Bacteroides fragilis = assay: MIC, serial two-fold agar dilution; format: cell-based; details: GAM agar, anaerobe
Clostridium difficile = assay: MIC, serial two-fold agar dilution; format: cell-based; details: Clostridioides difficile; GAM agar, anaerobe
Clostridium perfringens = assay: microbe, parasite or virus in culture; format: cell-based
Propionibacterium acnes = assay: MIC, serial two-fold agar dilution; format: cell-based; details: Cutibacterium acnes; GAM agar, anaerobe
Staphylococcus aureus = assay: anti-staphylococcal activity (MIC comparison); format: cell-based; details: vs BBM-2478B or chartreusin
[11] = tested on: gram-negative bacteria and fungi; assay: antibacterial/antifungal activity (MIC), summary; format: cell-based
[12] = tested on: P388, L1210 and B16 tumors; assay: antitumor activity in mice, summary over P388, L1210 and B16; format: in vivo, BDF1 mice
[13] = acute toxicity, single intraperitoneal administration; details: mouse, in vivo; single ip, mice (ddY strain)
solubility = format: physicochemical
[14] = tested on: aerobic gram-positive bacteria and anaerobic bacteria; assay: antibacterial activity, summary; format: cell-based
Text: Nutrient agar medium was used for gram-positive and gram-negative bacteria, GAM agar medium for anaerobes and Sabouraud agar medium for fungi.

melanotic melanoma B16 = assay: antitumor activity, B16 melanoma in mice; details: qd 1→9
[15] = tested on: lymphocytic leukemia P388; assay: antitumor activity, P388 leukemia in mice; details: qd 1→9
lymphoid leukemia L1210 = assay: antitumor activity, L1210 leukemia in mice; details: qd 1→9

CO[C@@H]1[C@@H](N)[C@@H](O[C@H]2[C@H](Oc3cccc4c(O)c5c(=O)oc6ccc(C)c7c(=O)oc(c34)c5c67)O[C@H](C)[C@H](O)[C@]2(C)O)O[C@H](C)[C@@H]1O [BBM-2478A]
MIC [1]: 1.6 µg/mL (≈ 2.45 µM) | MIC [2]: 0.8 µg/mL (≈ 1.22 µM) | MIC [3]: 0.8 µg/mL (≈ 1.22 µM) | MIC [4]: 0.8 µg/mL (≈ 1.22 µM) | MIC (Micrococcus flavus D12): 0.8 µg/mL (≈ 1.22 µM) | MIC (Escherichia coli NIHJ): 100 µg/mL (≈ 153 µM) | MIC [5]: 100 µg/mL (≈ 153 µM) | MIC [6]: 100 µg/mL (≈ 153 µM) | MIC [7]: > 100 µg/mL | MIC [8]: > 100 µg/mL | MIC [9]: > 100 µg/mL | MIC [10]: > 100 µg/mL | MIC (Bacteroides fragilis): 12.5 µg/mL (≈ 19.1 µM) | MIC (Clostridium difficile): 12.5 µg/mL (≈ 19.1 µM) | MIC (Clostridium perfringens): 6.3 µg/mL (≈ 9.64 µM) | MIC (Propionibacterium acnes): 6.3 µg/mL (≈ 9.64 µM) | anti-staphylococcal activity relative to BBM-2478B or chartreusin (Staphylococcus aureus): two to four times higher | activity against gram-negative bacteria and fungi [11]: inactive | T/C values compared with chartreusin ([12]; all tumors tested, ip, qd 1→9): superior to those of chartreusin | antitumor activity ([12]; experimental mouse tumors): significant antitumor activity | LD50 [13]: 38 mg/kg | solubility in acidic water (solubility; acidic water): readily soluble | solubility in dimethyl sulfoxide, dimethylformamide, dioxane (solubility; dimethyl sulfoxide, dimethylformamide, dioxane): readily soluble | solubility in methanol, ethanol and chloroform (solubility; methanol, ethanol, chloroform): slightly soluble | solubility in other organic solvents (solubility; other organic solvents): insoluble | antibacterial activity [14]: potent antibacterial activity | Average wt. change on day 5 (melanotic melanoma B16; 0.03 mg/kg/day ip): +2.0 g | MST (melanotic melanoma B16; 0.03 mg/kg/day ip): 16.0 days | Survivors on day 5 (melanotic melanoma B16; 0.03 mg/kg/day ip): 6/6 | Survivors on day 45 (melanotic melanoma B16; 0.03 mg/kg/day ip): 0/6 | T/C (melanotic melanoma B16; 0.03 mg/kg/day ip): 114% | Average wt. change on day 5 (melanotic melanoma B16; 0.1 mg/kg/day ip): +2.5 g | MST (melanotic melanoma B16; 0.1 mg/kg/day ip): 18.5 days | Survivors on day 5 (melanotic melanoma B16; 0.1 mg/kg/day ip): 6/6 | Survivors on day 45 (melanotic melanoma B16; 0.1 mg/kg/day ip): 0/6 | Average wt. change on day 5 (melanotic melanoma B16; 0.3 mg/kg/day ip): +2.5 g | MST (melanotic melanoma B16; 0.3 mg/kg/day ip): 25.5 days | Survivors on day 5 (melanotic melanoma B16; 0.3 mg/kg/day ip): 6/6 | Survivors on day 45 (melanotic melanoma B16; 0.3 mg/kg/day ip): 0/6 | Average wt. change on day 5 (melanotic melanoma B16; 1 mg/kg/day ip): +2.2 g | MST (melanotic melanoma B16; 1 mg/kg/day ip): 34.5 days | Survivors on day 5 (melanotic melanoma B16; 1 mg/kg/day ip): 6/6 | Survivors on day 45 (melanotic melanoma B16; 1 mg/kg/day ip): 0/6 | Average wt. change on day 5 (melanotic melanoma B16; 3 mg/kg/day ip): +1.5 g | MST (melanotic melanoma B16; 3 mg/kg/day ip): 41.5 days | Survivors on day 5 (melanotic melanoma B16; 3 mg/kg/day ip): 6/6 | Survivors on day 45 (melanotic melanoma B16; 3 mg/kg/day ip): 0/6 | Average wt. change on day 5 ([15]; 0.01 mg/kg/day ip): +2.0 g | MST ([15]; 0.01 mg/kg/day ip): 10.0 days | Survivors on day 5 ([15]; 0.01 mg/kg/day ip): 6/6 | Survivors on day 45 ([15]; 0.01 mg/kg/day ip): 0/6 | T/C ([15]; 0.01 mg/kg/day ip): 111% | Average wt. change on day 5 ([15]; 0.03 mg/kg/day ip): +2.3 g | MST ([15]; 0.03 mg/kg/day ip): 10.0 days | Survivors on day 5 ([15]; 0.03 mg/kg/day ip): 6/6 | Survivors on day 45 ([15]; 0.03 mg/kg/day ip): 0/6 | Average wt. change on day 5 ([15]; 0.1 mg/kg/day ip): +1.2 g | MST ([15]; 0.1 mg/kg/day ip): 14.5 days | Survivors on day 5 ([15]; 0.1 mg/kg/day ip): 6/6 | Survivors on day 45 ([15]; 0.1 mg/kg/day ip): 0/6 | Average wt. change on day 5 ([15]; 0.3 mg/kg/day ip): +1.8 g | MST ([15]; 0.3 mg/kg/day ip): 17.0 days | Survivors on day 5 ([15]; 0.3 mg/kg/day ip): 6/6 | Survivors on day 45 ([15]; 0.3 mg/kg/day ip): 0/6 | Average wt. change on day 5 ([15]; 1 mg/kg/day ip): +0.8 g | MST ([15]; 1 mg/kg/day ip): 21.5 days | Survivors on day 5 ([15]; 1 mg/kg/day ip): 6/6 | Survivors on day 45 ([15]; 1 mg/kg/day ip): 0/6 | Average wt. change on day 5 ([15]; 3 mg/kg/day ip): -1.0 g | MST ([15]; 3 mg/kg/day ip): 20.0 days | Survivors on day 5 ([15]; 3 mg/kg/day ip): 5/5 | Survivors on day 45 ([15]; 3 mg/kg/day ip): 0/5 | Average wt. change on day 5 (lymphoid leukemia L1210; 0.01 mg/kg/day ip): +3.2 g | MST (lymphoid leukemia L1210; 0.01 mg/kg/day ip): 8.0 days | Survivors on day 5 (lymphoid leukemia L1210; 0.01 mg/kg/day ip): 6/6 | Survivors on day 45 (lymphoid leukemia L1210; 0.01 mg/kg/day ip): 0/6 | T/C (lymphoid leukemia L1210; 0.01 mg/kg/day ip): 100% | Average wt. change on day 5 (lymphoid leukemia L1210; 0.03 mg/kg/day ip): +2.9 g | MST (lymphoid leukemia L1210; 0.03 mg/kg/day ip): 8.0 days | Survivors on day 5 (lymphoid leukemia L1210; 0.03 mg/kg/day ip): 6/6 | Survivors on day 45 (lymphoid leukemia L1210; 0.03 mg/kg/day ip): 0/6 | T/C (lymphoid leukemia L1210; 0.03 mg/kg/day ip): 100% | Average wt. change on day 5 (lymphoid leukemia L1210; 0.1 mg/kg/day ip): +2.6 g | MST (lymphoid leukemia L1210; 0.1 mg/kg/day ip): 8.0 days | Survivors on day 5 (lymphoid leukemia L1210; 0.1 mg/kg/day ip): 6/6 | Survivors on day 45 (lymphoid leukemia L1210; 0.1 mg/kg/day ip): 0/6 | T/C (lymphoid leukemia L1210; 0.1 mg/kg/day ip): 100% | Average wt. change on day 5 (lymphoid leukemia L1210; 0.3 mg/kg/day ip): +1.3 g | MST (lymphoid leukemia L1210; 0.3 mg/kg/day ip): 10.5 days | Survivors on day 5 (lymphoid leukemia L1210; 0.3 mg/kg/day ip): 6/6 | Survivors on day 45 (lymphoid leukemia L1210; 0.3 mg/kg/day ip): 0/6 | Average wt. change on day 5 (lymphoid leukemia L1210; 1 mg/kg/day ip): -0.8 g | MST (lymphoid leukemia L1210; 1 mg/kg/day ip): 11.0 days | Survivors on day 5 (lymphoid leukemia L1210; 1 mg/kg/day ip): 6/6 | Survivors on day 45 (lymphoid leukemia L1210; 1 mg/kg/day ip): 0/6 | Average wt. change on day 5 (lymphoid leukemia L1210; 3 mg/kg/day ip): -0.1 g | MST (lymphoid leukemia L1210; 3 mg/kg/day ip): 12.0 days | Survivors on day 5 (lymphoid leukemia L1210; 3 mg/kg/day ip): 6/6 | Survivors on day 45 (lymphoid leukemia L1210; 3 mg/kg/day ip): 0/6
